Consider four compounds from US20220169628A1 (University of Florida Research Foundation, Incorporated, priority 2019, published 2022).

The test system of assay [1] is MOLT-4 cells. Kind of assay: Cell viability assay, MTS, 48 h, MOLT-4. The class given is cell-based. The settings on record: Homo sapiens, MOLT-4, 48 h, 48 hours, read-out: IC50 (48 hours) MOLT-4. How it is done:
(§1) Acute lymphoblastic leukemia cells (MOLT-4 and RS4; 11) or small cell lung cancer (NCI-H146 or simply H146) were incubated with increasing concentrations of Bcl-xL degraders for 48 h. Cell viability was measured by tetrazolium-based MTS assay.

Assay [2] concerns RS4;11 cells. The assay can be described thus: Cell viability assay, MTS, 48 h, RS4;11. Type of assay: cell-based. To be noted: Homo sapiens, RS4-11, 48 h, 48 hours, read-out: IC50 (48 hours) RS4;11. How it is done:
as §1

For the compound `Cc1ncsc1-c1ccc([C@H](C)NC(=O)[C@@H]2C[C@@H](O)CN2C(=O)[C@@H](NC(=O)CCCCCCCCCC(=O)N2CCC(c3ccc(Cl)cc3)=C(CN3CCN(c4ccc(C(=O)NS(=O)(=O)c5ccc(N[C@H](CCN6CCOCC6)CSc6ccccc6)c(S(=O)(=O)C(F)(F)F)c5)cc4)CC3)C2)C(C)(C)C)cc1` [compound 84, (2S,4R)-1-((S)-2-(11-(4-(4-chlorophenyl)-5-((4-(4-(((4-(((R)-4-morpholino-1-(phenylthio)butan-2-yl)amino)-3-((trifluoromethyl)sulfonyl)phenyl)sulfonyl)carbamoyl)phenyl)piperazin-1-yl)methyl)-3,6-dihydropyridin-1(2H)-yl)-11-oxoundecanamido)-3,3-dimethylbutanoyl)-4-hydroxy-N—((S)-1-(4-(4-methylthiazol-5-yl)phenyl)ethyl)pyrrolidine-2-carboxamide], the IC50 in assay [1] and in assay [2] was 150 to 500 nM throughout.
With `Cc1ncsc1-c1ccc([C@H](C)NC(=O)[C@@H]2C[C@@H](O)CN2C(=O)[C@@H](NC(=O)CCCCCCCCCCC(=O)N2CCC(c3ccc(Cl)cc3)=C(CN3CCN(c4ccc(C(=O)NS(=O)(=O)c5ccc(N[C@H](CCN6CCOCC6)CSc6ccccc6)c(S(=O)(=O)C(F)(F)F)c5)cc4)CC3)C2)C(C)(C)C)cc1` [compound 85, (2S,4R)-1-((S)-2-(12-(4-(4-chlorophenyl)-5-((4-(4-(((4-(((R)-4-morpholino-1-(phenylthio)butan-2-yl)amino)-3-((trifluoromethyl)sulfonyl)phenyl)sulfonyl)carbamoyl)phenyl)piperazin-1-yl)methyl)-3,6-dihydropyridin-1(2H)-yl)-12-oxododecanamido)-3,3-dimethylbutanoyl)-4-hydroxy-N—((S)-1-(4-(4-methylthiazol-5-yl)phenyl)ethyl)pyrrolidine-2-carboxamide], the half-maximal inhibitory concentration (IC50) in assay [1] and in assay [2] was 50 to 150 nM each time.
For `Cc1ncsc1-c1ccc([C@H](C)NC(=O)[C@@H]2C[C@@H](O)CN2C(=O)[C@@H](NC(=O)COCCOCCOCCOC(=O)N2CCC(c3ccc(Cl)cc3)=C(CN3CCN(c4ccc(C(=O)NS(=O)(=O)c5ccc(N[C@H](CCN6CCOCC6)CSc6ccccc6)c(S(=O)(=O)C(F)(F)F)c5)cc4)CC3)C2)C(C)(C)C)cc1` [compound 86, (S)-13-((2S,4R)-4-hydroxy-2-(((S)-1-(4-(4-methylthiazol-5-yl)phenyl)ethyl)carbamoyl)pyrrolidine-1-carbonyl)-14,14-dimethyl-11-oxo-3,6,9-trioxa-12-azapentadecyl 4-(4-chlorophenyl)-5-((4-(4-(((4-(((R)-4-morpholino-1-(phenylthio)butan-2-yl)amino)-3-((trifluoromethyl)sulfonyl)phenyl)sulfonyl)carbamoyl)phenyl)piperazin-1-yl)methyl)-3,6-dihydropyridine-1(2H)-carboxylate], the IC50 in assay [1] and in assay [2] was over 500 nM in each case.
As for `Cc1ncsc1-c1ccc([C@H](C)NC(=O)[C@@H]2C[C@@H](O)CN2C(=O)[C@@H](NC(=O)COCCOCCOCCOCCOC(=O)N2CCC(c3ccc(Cl)cc3)=C(CN3CCN(c4ccc(C(=O)NS(=O)(=O)c5ccc(N[C@H](CCN6CCOCC6)CSc6ccccc6)c(S(=O)(=O)C(F)(F)F)c5)cc4)CC3)C2)C(C)(C)C)cc1` [compound 87, (S)-16-((2S,4R)-4-hydroxy-2-(((S)-1-(4-(4-methylthiazol-5-yl)phenyl)ethyl)carbamoyl)pyrrolidine-1-carbonyl)-17,17-dimethyl-14-oxo-3,6,9,12-tetraoxa-15-azaoctadecyl 4-(4-chlorophenyl)-5-((4-(4-(((4-(((R)-4-morpholino-1-(phenylthio)butan-2-yl)amino)-3-((trifluoromethyl)sulfonyl)phenyl)sulfonyl)carbamoyl)phenyl)piperazin-1-yl)methyl)-3,6-dihydropyridine-1(2H)-carboxylate], the concentration for half-maximal inhibition (IC50) in assay [1] and in assay [2] was over 500 nM throughout.
